Where two headings read alike, the source gives them in different places.

Data set [1] addresses human DAT (Homo sapiens (Human), UniProt Q01959). The experiment in a line: Binding to dopamine transporter (DAT) in vitro, [3H]-WIN35,428 SPA. How it is done:
Binding to dopamine transporter (DAT) in vitro. Human embryonic kidney (HEK) 293 cells (Invitrogen, Zug, Switzerland) stably transfected with human DAT were cultured. The cells were collected and washed three times with phosphate-buffered saline (PBS). The pellets were frozen at −80° C. The pellets were then resuspended in 400 ml of 20 mM HEPES-NaOH, pH 7.4, that contained 10 mM EDTA at 4° C. […] Aliquots of the membrane stocks were frozen at −80° C. All assays were performed at least three times. The test compounds were diluted in […] of binding buffer (252 mM NaCl, 5.4 mM KCl, 20 mM Na2HPO4, 3.52 mM KH2PO4, pH 7.4) and 10 point dilution curves were made and transferred to 96-well white polystyrene assay plates (Sigma-Aldrich, Buchs, Switzerland). […] Twenty microliters of binding buffer alone in the assay plate defined the total binding, whereas binding in the presence of 10 μM indatraline defined nonspecific binding. Frozen DAT membrane stocks were thawed and resuspended to a concentration of approximately 0.04 mg protein/ml binding buffer (1:1 diluted in H2O) using a polytron tissue homogenizer. The membrane homogenates (40 μg/ml) were then lightly mixed for 5-30 min with polyvinyl toluene […] wheat germ agglutinin-coated scintillation proximity assay (WGASPA; Amersham Biosciences) beads at 7.7 mg beads/ml homogenate. One hundred thirty microliters of the membrane/bead mixture were added to each well of the assay plate that contained radioligand and test compounds (final volume in each well, 200 μl) to start the assay, which was incubated for approximately 2 h at room temperature with agitation. The assay plates were then counted in the PVT SPA counting mode of a Packard Topcount. […] Non-linear regression was used to fit the data to sigmoid curves and determine IC50 values for binding and uptake. Ki values for binding and uptake were calculated using the following Cheng-Prusoff equation: Ki=IC50/(1+[S]/Km).

Data set [2] addresses human TAAR1 (Homo sapiens (Human), UniProt Q96RJ0). Nature of the data set: cAMP functional assay in HEK293 cells expressing human TAAR1. The following applies: for EC50: cAMP, HEK293 cells expressing human TAAR1, read-out: hTAAR1 EC50. The class given is cell-based. Here is the method:
The Expand High Fidelity PCR System (Roche Diagnostics) was used with 1.5 mM Mg^2+ and purified PCR products were cloned into pCR2.1-TOPO cloning vector (Invitrogen) following the instructions of the manufacturer. PCR products were subcloned into the pIRESneo2 vector (BD Clontech, Palo Alto, Calif.), and expression vectors were sequence verified before introduction in cell lines.
HEK293 cells (ATCC #CRL-1573) were cultured essentially as described by Lindemann et al. (2005). For the generation of stably transfected cell lines HEK293 cells were transfected with the pIRESneo2 expression plasmids containing the TAAR coding sequences (described above) with Lipofectamine 2000 (Invitrogen) according to the instructions of the manufacturer, and 24 hrs post transfection the culture medium was supplemented with 1 mg/ml G418 (Sigma, Buchs, Switzerland). After a culture period of about 10 d clones were isolated, expanded and tested for responsiveness to trace amines (all compounds purchased from Sigma) with the cAMP Biotrak Enzyme immunoassay (EIA) System (Amersham) following the non-acetylation EIA procedure provided by the manufacturer.
cAMP measurements were performed as described previously (Revel et al., Proc. Natl. Acad. Sci. USA 2011, 108, 8485-8490). In brief, cells that expressed human TAAR1 were plated on 96-well plates (BIOCOAT 6640; Becton Dickinson, Allschwil, Switzerland) and incubated for 20 h at 37° C. Prior to stimulation of the cells with a broad concentration range of agonists for 30 min at 37° C., the cells were washed with PBS and preincubated with PBS that contained 1 mM 3-isobutyl-1-methylxanthine for 10 min at 37° C. and 5% CO2. Stimulation with 0.2% DMSO was set as the basal level, and the effect of 30 μM β-PEA was set as the maximal response. […] Finally, the plates were read with a luminometer (1420 Multilabel counter; PerkinElmer, Schwerzenbach, Switzerland), and the amount of cAMP was calculated. […]

Data set [3] addresses hERG potassium channels (Homo sapiens (Human), UniProt Q12809). Nature of the data set: Whole-cell patch-clamp on hERG potassium channels in stably transfected CHO cells. In kind it is cell-based. How it is done: The whole-cell patch-clamp technique was used to investigate the effects of the test items on hERG (human-ether-a-go-go related gene) potassium channels in stably transfected CHO cells near physiological temperature (36±1° C.). The effects of compounds on hERG K^+-current parameters were evaluated at 4 concentrations (0.3-3-30-300 μM) in at least 3 CHO cells stably expressing the hERG channel. For electrophysiological measurements cells were seeded onto 35 mm sterile culture dishes containing 2 ml culture medium without Hygromycin B. Cells were cultivated at a density that enabled single cells (without visible connections to neighbouring cells) to be measured. Cells were incubated at 37° C. in a humidified atmosphere with 5% CO2 (rel. humidity about 95%). The cells were continuously maintained in and passaged in sterile culture flasks containing nutrient mixture F-12 (DMEM/F-12 with L-Glutamine) supplemented with 10% foetal bovine serum and 10% penicillin/streptomycin solution. […] The 35 mm culture dishes upon which cells were seeded at a density allowing single cells to be recorded were placed on the dish holder of the microscope and continuously perfused (at approximately 1 ml/min) with the bath solution (sodium chloride 150 mM, potassium chloride 4 mM, calcium chloride 1.2 mM, magnesium chloride 1 mM, HEPES 10 mM, pH (NaOH) 7.4) at near physiological temperature (36±1° C.). After formation of a Gigaohm seal between the patch electrodes and individual hERG stably transfected CHO cells (pipette resistance range: 2.0 MΩ-7.0 MΩ; seal resistance range: >1 GΩ) the cell membrane across the pipette tip was ruptured to assure electrical access to the cell interior (whole-cell patch-configuration). In case the quality of the seal was poor, the process of seal formation was repeated with a different cell and a new pipette. […] This voltage protocol was run at least 10 times at intervals of 10 s. If current density was judged to be too low for measurement, another cell was recorded. […] During wash-in of the test item the voltage protocol indicated above was run continuously again at 10 s intervals until the steady-state level of block was reached. The four test item concentrations of the compound were applied sequentially to 3 cells in a cumulative manner. […] Based on the IC50 value the IC20 was estimated. Each concentration of the test item was analyzed in three experiments (n=3).
For orientation: In patch-clamp work, channel activity is measured electrically.

Data set [4] has as its target mutant DAT (Mus musculus (Mouse), UniProt Q61327, A109V/F105C/L104V). The following applies: cocaine-insensitive DAT; cited from earlier work.

Sequence of hERG potassium channels (Q12809 whole entry): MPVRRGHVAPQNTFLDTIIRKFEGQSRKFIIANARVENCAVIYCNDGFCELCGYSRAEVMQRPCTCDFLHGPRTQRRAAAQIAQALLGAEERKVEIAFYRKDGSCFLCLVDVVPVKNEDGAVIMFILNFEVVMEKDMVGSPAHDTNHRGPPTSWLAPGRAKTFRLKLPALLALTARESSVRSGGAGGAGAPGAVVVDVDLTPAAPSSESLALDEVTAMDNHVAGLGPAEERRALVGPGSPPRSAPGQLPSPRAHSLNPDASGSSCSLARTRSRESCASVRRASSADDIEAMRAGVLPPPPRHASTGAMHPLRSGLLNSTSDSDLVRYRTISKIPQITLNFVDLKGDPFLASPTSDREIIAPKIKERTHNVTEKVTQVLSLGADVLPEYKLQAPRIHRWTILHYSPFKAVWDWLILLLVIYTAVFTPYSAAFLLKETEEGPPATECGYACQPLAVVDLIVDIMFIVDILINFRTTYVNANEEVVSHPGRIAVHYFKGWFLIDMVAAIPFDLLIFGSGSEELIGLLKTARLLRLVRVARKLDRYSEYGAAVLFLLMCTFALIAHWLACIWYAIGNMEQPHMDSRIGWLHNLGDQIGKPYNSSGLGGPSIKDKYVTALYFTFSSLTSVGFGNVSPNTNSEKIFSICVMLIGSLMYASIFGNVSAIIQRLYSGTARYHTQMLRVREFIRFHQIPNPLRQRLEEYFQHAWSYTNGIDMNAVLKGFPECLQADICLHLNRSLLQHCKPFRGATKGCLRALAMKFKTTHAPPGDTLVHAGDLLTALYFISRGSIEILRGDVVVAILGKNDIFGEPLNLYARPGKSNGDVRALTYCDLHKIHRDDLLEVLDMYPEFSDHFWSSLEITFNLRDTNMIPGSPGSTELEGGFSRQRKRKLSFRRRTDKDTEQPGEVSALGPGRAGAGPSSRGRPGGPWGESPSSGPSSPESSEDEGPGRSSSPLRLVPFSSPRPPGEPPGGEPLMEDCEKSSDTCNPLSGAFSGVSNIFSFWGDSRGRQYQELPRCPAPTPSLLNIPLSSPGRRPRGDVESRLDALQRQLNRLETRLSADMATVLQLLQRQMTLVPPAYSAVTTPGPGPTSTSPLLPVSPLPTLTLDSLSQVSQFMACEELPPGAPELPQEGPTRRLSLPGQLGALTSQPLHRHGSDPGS
Sequence of human TAAR1 (Q96RJ0 whole entry): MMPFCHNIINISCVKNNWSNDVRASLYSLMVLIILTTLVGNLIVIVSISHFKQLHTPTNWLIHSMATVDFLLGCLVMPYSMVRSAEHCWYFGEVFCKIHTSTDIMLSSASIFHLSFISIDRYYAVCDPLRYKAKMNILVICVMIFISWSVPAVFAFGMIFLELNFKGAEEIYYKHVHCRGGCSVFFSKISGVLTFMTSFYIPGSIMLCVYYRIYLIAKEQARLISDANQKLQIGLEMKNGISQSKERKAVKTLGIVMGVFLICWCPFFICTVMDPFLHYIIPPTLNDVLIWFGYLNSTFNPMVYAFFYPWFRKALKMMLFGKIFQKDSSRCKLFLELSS
Sequence of human DAT (Q01959 whole entry): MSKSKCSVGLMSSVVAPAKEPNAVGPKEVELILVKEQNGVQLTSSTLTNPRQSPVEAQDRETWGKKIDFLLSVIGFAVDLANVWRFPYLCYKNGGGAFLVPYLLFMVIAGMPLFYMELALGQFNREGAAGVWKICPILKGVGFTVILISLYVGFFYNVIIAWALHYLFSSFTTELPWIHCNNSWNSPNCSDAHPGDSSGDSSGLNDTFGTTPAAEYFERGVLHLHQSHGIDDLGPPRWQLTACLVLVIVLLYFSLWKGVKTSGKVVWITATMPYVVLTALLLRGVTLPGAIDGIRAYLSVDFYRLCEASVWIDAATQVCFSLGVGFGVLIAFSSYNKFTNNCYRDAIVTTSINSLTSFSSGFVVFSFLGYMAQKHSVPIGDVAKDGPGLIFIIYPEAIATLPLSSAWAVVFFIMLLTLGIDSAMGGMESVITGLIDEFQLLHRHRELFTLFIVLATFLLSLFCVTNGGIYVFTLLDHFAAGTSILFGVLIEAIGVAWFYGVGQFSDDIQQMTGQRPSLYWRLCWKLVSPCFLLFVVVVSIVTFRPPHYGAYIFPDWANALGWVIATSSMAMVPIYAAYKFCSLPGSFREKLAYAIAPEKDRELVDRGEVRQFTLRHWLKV

Turning to “5-Chloro-N-[4-[(2S)-morpholin-2-yl]phenyl]pyridine-2-carboxamide [Example 12]”, in data set [1], the “Ratio DAT Ki/hTAAR1 EC50” value came to 8. Also, the “DAT selectivity ratio versus hTAAR1 EC50” value in data set [1] (DAT Ki versus hTAAR1 EC50) came out at 8 fold. The affinity in data set [1] ([3H]-WIN35,428 radioligand) corresponds to a Ki of 1780 nM. In addition, the hTAAR1 efficacy in data set [2] (% agonist activity, β-phenylethylamine = 100% agonism) is reported as 40%. The EC50 in data set [2] (listed as Comparative example 12) and in data set [2] was 212 nM in each case. In addition, the “Ratio hERG IC20/hTAAR1 EC50” value in data set [3] is 15. In addition, the IC20 in data set [3] (estimated based on the IC50 value) is 3.21 µM. Besides, the “hERG selectivity ratio versus hTAAR1 EC50” value in data set [3] (hERG IC20 versus hTAAR1 EC50) turned out to be 15 fold. For the same molecule, 14.3 µM corresponded to half-maximal inhibition in data set [3] (patch-clamp, CHO cells, 36±1° C.) (IC50).

As for `COC(=O)[C@H]1[C@@H](OC(=O)c2ccccc2)C[C@@H]2CC[C@H]1N2C` [cocaine], in data set [4], the “lower affinity of mutant DAT for cocaine relative to wild-type DAT” value is recorded as 89 fold.

For orientation: Ki means the equilibrium dissociation constant of an inhibitor or competing ligand from its target. Broadly, the EC50 is the concentration at which the effect is half-maximal. The term IC20 denotes the concentration at which the effect reaches the 20% level. One may read the IC50 as the concentration that inhibits the measured activity by half. A low value points to inhibition by little substance.

Source of the values: patent US11312711B2, “Morpholine derivative” (Hoffmann-La Roche Inc., priority 2016, dated 2022).
